Source: the supplement of paper PMC10307832

What was measured:
Assay in all cases: relative viability (nuclei count vs DMSO), 5 days (fraction); higher = more cells survive
[1] = compound: CCN1C(=O)C2=CC(=C(N=C2N(C1=O)C3CC3)N)C(=O)N + Cc1nc(NC(=O)N2CCC[C@H]2C(N)=O)sc1-c1ccnc(C(C)(C)C(F)(F)F)c1 [Alpelisib] (partner 2 µM)
Outline: (§1)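 Lung cancer cell lines in 1536-well plates were dosed by pin tool the day after seeding, either with one drug alone or with a fixed anchor-drug dose plus five library-drug doses (not always all listed) in √10 steps. After 5 days, cells were fixed and their nuclei stained in one step (final 0.05% Triton X-100, 1% formaldehyde, 1 ug/ml Hoechst), then counted on 4× images. Relative viability is the nuclei count in treated wells divided by that in vehicle wells. Values are medians of duplicate plates.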

[2] = compound: CCN1C(=O)C2=CC(=C(N=C2N(C1=O)C3CC3)N)C(=O)N + O=C(c1cc(Cc2n[nH]c(=O)c3ccccc23)ccc1F)N1CCN(C(=O)C2CC2)CC1 [Olaparib] (partner 8 µM)
Outline: as §1

[3] = compound: CCN1C(=O)C2=CC(=C(N=C2N(C1=O)C3CC3)N)C(=O)N + Nc1nc2[nH]cc(CCc3ccc(C(=O)N[C@@H](CCC(=O)O)C(=O)O)cc3)c2c(=O)[nH]1 [Pemetrexed] (partner 0.2 µM)
Outline: as §1

[4] = compound: CCN1C(=O)C2=CC(=C(N=C2N(C1=O)C3CC3)N)C(=O)N + Nc1ncn([C@H]2C[C@H](O)[C@@H](CO)O2)c(=O)n1 [Decitabine] (partner 2 µM)
Outline: as §1

[5] = compound: CCN1C(=O)C2=CC(=C(N=C2N(C1=O)C3CC3)N)C(=O)N + O=C(CCCCCCC(=O)Nc1ccccc1)NO [Vorinostat] (partner 1 µM)
Outline: as §1

LU99A
relative viability ([1]; first compound 0.253 µM): 0.488
relative viability ([1]; first compound 0.8 µM): 0.531
relative viability ([1]; first compound 2.53 µM): 0.527
relative viability ([1]; first compound 8 µM): 0.524
relative viability ([2]; first compound 0.253 µM): 0.256
relative viability ([2]; first compound 0.8 µM): 0.285
relative viability ([2]; first compound 2.53 µM): 0.256
relative viability ([2]; first compound 8 µM): 0.275
relative viability ([3]; first compound 0.253 µM): 0.174
relative viability ([3]; first compound 0.8 µM): 0.187
relative viability ([3]; first compound 2.53 µM): 0.168
relative viability ([3]; first compound 8 µM): 0.184
relative viability ([4]; first compound 0.253 µM): 0.765
relative viability ([4]; first compound 0.8 µM): 0.952
relative viability ([4]; first compound 2.53 µM): 0.873
relative viability ([4]; first compound 8 µM): 0.828
relative viability ([5]; first compound 0.253 µM): 0.471
relative viability ([5]; first compound 0.8 µM): 0.493
relative viability ([5]; first compound 2.53 µM): 0.471
relative viability ([5]; first compound 8 µM): 0.469

RERF-LC-KJ
relative viability ([1]; first compound 0.253 µM): 0.792
relative viability ([1]; first compound 0.8 µM): 0.791
relative viability ([1]; first compound 2.53 µM): 0.763
relative viability ([1]; first compound 8 µM): 0.838
relative viability ([2]; first compound 0.253 µM): 0.887
relative viability ([2]; first compound 0.8 µM): 0.89
relative viability ([2]; first compound 2.53 µM): 0.883
relative viability ([2]; first compound 8 µM): 0.897
relative viability ([3]; first compound 0.253 µM): 0.473
relative viability ([3]; first compound 0.8 µM): 0.448
relative viability ([3]; first compound 2.53 µM): 0.472
relative viability ([3]; first compound 8 µM): 0.481
relative viability ([4]; first compound 0.253 µM): 0.772
relative viability ([4]; first compound 0.8 µM): 0.742
relative viability ([4]; first compound 2.53 µM): 0.68
relative viability ([4]; first compound 8 µM): 0.593
relative viability ([5]; first compound 0.253 µM): 0.678
relative viability ([5]; first compound 0.8 µM): 0.737
relative viability ([5]; first compound 2.53 µM): 0.807
relative viability ([5]; first compound 8 µM): 0.838

NCI-H647
relative viability ([1]; first compound 0.253 µM): 1.11
relative viability ([1]; first compound 0.8 µM): 1.17
relative viability ([1]; first compound 2.53 µM): 1.14
relative viability ([1]; first compound 8 µM): 1.07
relative viability ([2]; first compound 0.253 µM): 0.56
relative viability ([2]; first compound 0.8 µM): 0.484
relative viability ([2]; first compound 2.53 µM): 0.586
relative viability ([2]; first compound 8 µM): 0.741
relative viability ([3]; first compound 0.253 µM): 0.174
relative viability ([3]; first compound 0.8 µM): 0.205
relative viability ([3]; first compound 2.53 µM): 0.157
relative viability ([3]; first compound 8 µM): 0.185
relative viability ([4]; first compound 0.253 µM): 0.444
relative viability ([4]; first compound 0.8 µM): 0.411
relative viability ([4]; first compound 2.53 µM): 0.458
relative viability ([4]; first compound 8 µM): 0.433
relative viability ([5]; first compound 0.253 µM): 0.448
relative viability ([5]; first compound 0.8 µM): 0.477
relative viability ([5]; first compound 2.53 µM): 0.557
relative viability ([5]; first compound 8 µM): 0.862

LCLC-97TM1
relative viability ([1]; first compound 0.253 µM): 0.258
relative viability ([1]; first compound 8 µM): 0.275
relative viability ([2]; first compound 0.253 µM): 0.422
relative viability ([2]; first compound 0.8 µM): 0.397
relative viability ([2]; first compound 2.53 µM): 0.318
relative viability ([2]; first compound 8 µM): 0.419
relative viability ([3]; first compound 0.253 µM): 0.227
relative viability ([3]; first compound 0.8 µM): 0.177
relative viability ([3]; first compound 2.53 µM): 0.173
relative viability ([3]; first compound 8 µM): 0.172
relative viability ([4]; first compound 0.253 µM): 0.207
relative viability ([4]; first compound 0.8 µM): 0.225
relative viability ([4]; first compound 2.53 µM): 0.244
relative viability ([4]; first compound 8 µM): 0.262
relative viability ([5]; first compound 0.253 µM): 0.711
relative viability ([5]; first compound 0.8 µM): 0.752
relative viability ([5]; first compound 2.53 µM): 0.634
relative viability ([5]; first compound 8 µM): 0.773

NCI-H1993
relative viability ([1]; first compound 0.253 µM): 0.651
relative viability ([1]; first compound 0.8 µM): 0.7
relative viability ([1]; first compound 2.53 µM): 0.611
relative viability ([1]; first compound 8 µM): 0.669
relative viability ([2]; first compound 0.253 µM): 1.57
relative viability ([2]; first compound 0.8 µM): 0.75
relative viability ([2]; first compound 2.53 µM): 1.05
relative viability ([2]; first compound 8 µM): 1.08
relative viability ([3]; first compound 0.253 µM): 0.607
relative viability ([3]; first compound 0.8 µM): 0.525
relative viability ([3]; first compound 2.53 µM): 0.607
relative viability ([3]; first compound 8 µM): 0.541
relative viability ([4]; first compound 0.253 µM): 0.677
relative viability ([4]; first compound 0.8 µM): 0.586
relative viability ([4]; first compound 2.53 µM): 0.555
relative viability ([4]; first compound 8 µM): 0.701
relative viability ([5]; first compound 0.253 µM): 0.0267
relative viability ([5]; first compound 0.8 µM): 0.735
relative viability ([5]; first compound 2.53 µM): 0.76
relative viability ([5]; first compound 8 µM): 0.853

HARA
relative viability ([1]; first compound 0.253 µM): 0.817
relative viability ([1]; first compound 0.8 µM): 0.787
relative viability ([1]; first compound 2.53 µM): 0.79
relative viability ([1]; first compound 8 µM): 0.964
relative viability ([2]; first compound 0.253 µM): 0.897
relative viability ([2]; first compound 0.8 µM): 0.904
relative viability ([2]; first compound 2.53 µM): 0.915
relative viability ([2]; first compound 8 µM): 0.841
relative viability ([3]; first compound 0.253 µM): 0.223
relative viability ([3]; first compound 0.8 µM): 0.232
relative viability ([3]; first compound 2.53 µM): 0.246
relative viability ([3]; first compound 8 µM): 0.216
relative viability ([4]; first compound 0.253 µM): 0.473
relative viability ([4]; first compound 0.8 µM): 0.587
relative viability ([4]; first compound 2.53 µM): 0.402
relative viability ([4]; first compound 8 µM): 0.721
relative viability ([5]; first compound 0.253 µM): 0.563
relative viability ([5]; first compound 0.8 µM): 0.5
relative viability ([5]; first compound 2.53 µM): 0.57
relative viability ([5]; first compound 8 µM): 0.552

NCI-H460
relative viability ([1]; first compound 0.253 µM): 0.471
relative viability ([1]; first compound 0.8 µM): 0.433
relative viability ([1]; first compound 2.53 µM): 0.467
relative viability ([1]; first compound 8 µM): 0.466
relative viability ([2]; first compound 0.253 µM): 0.432
relative viability ([2]; first compound 0.8 µM): 0.364
relative viability ([2]; first compound 2.53 µM): 0.433
relative viability ([2]; first compound 8 µM): 0.445
relative viability ([3]; first compound 0.253 µM): 0.0628
relative viability ([3]; first compound 0.8 µM): 0.0522
relative viability ([3]; first compound 2.53 µM): 0.0677
relative viability ([3]; first compound 8 µM): 0.0646
relative viability ([4]; first compound 0.253 µM): 0.454
relative viability ([4]; first compound 0.8 µM): 0.462
relative viability ([4]; first compound 2.53 µM): 0.524
relative viability ([4]; first compound 8 µM): 0.301
relative viability ([5]; first compound 0.253 µM): 0.788
relative viability ([5]; first compound 0.8 µM): 0.74
relative viability ([5]; first compound 2.53 µM): 0.625
relative viability ([5]; first compound 8 µM): 0.688

EKVX
relative viability ([1]; first compound 0.253 µM): 0.975
relative viability ([1]; first compound 0.8 µM): 0.896
relative viability ([1]; first compound 2.53 µM): 0.821
relative viability ([1]; first compound 8 µM): 0.851
relative viability ([2]; first compound 0.253 µM): 0.849
relative viability ([2]; first compound 0.8 µM): 0.972
relative viability ([2]; first compound 2.53 µM): 0.792
relative viability ([2]; first compound 8 µM): 0.682
relative viability ([3]; first compound 0.253 µM): 0.397
relative viability ([3]; first compound 0.8 µM): 0.414
relative viability ([3]; first compound 2.53 µM): 0.282
relative viability ([3]; first compound 8 µM): 0.351
relative viability ([4]; first compound 0.253 µM): 0.352
relative viability ([4]; first compound 0.8 µM): 0.33
relative viability ([4]; first compound 2.53 µM): 0.352
relative viability ([4]; first compound 8 µM): 0.296
relative viability ([5]; first compound 0.253 µM): 0.881
relative viability ([5]; first compound 0.8 µM): 0.589
relative viability ([5]; first compound 2.53 µM): 0.716
relative viability ([5]; first compound 8 µM): 0.594
